Data reported in patent US6420330B1, “Use of quaternary carboxylic acid alkanolamine ester salts as microbicide agents” (Cognis Deutschland GmbH, priority 1997, dated 2002).

What follows are molecules tested on Pseudomonas aeruginosa ATCC 15442 (assay: DGHM suspension test, microbicidal activity). Conditions: CU 200 mg/l; contact time 30 mins.
Format: cell-based
Experimental: (§1) The microbicidal activity of the quanterary carboxylic acid alkanolamine ester salts used in accordance with the invention was tested against the following selected test germs:
(§2) The effectiveness of the compound to be tested was determined by the suspension test in accordance with the guidelines of the Deutsche Gesellschaft for Hygiene and Mikrobiologie (DGHM). Test solutions containing quatemary carboxylic acid alkanolamine ester salts in the quantities shown in the Tables of 50, 100, 200, 400 and 800 mg/l were prepared using water with a hardness of 17° dH and optionally isopropanol.
(§3) At room temperatures, quantities of 0.1 ml test germ suspension were pipetted into test tubes containing 10 ml of the test solutions described above and mixed. After various contact times of 5, 15, 30 and 60 minutes, 1 ml of material was taken from the test tubes by pipette and transferred to 9 ml inactivator solution (inactivators: 3.0% Tween, 0.3% lecithin, 0.1% histidine). After in activation for at least 5 and at most 30 minutes, the living germ count was determined by plating out onto casein peptone-soybean flour peptone (CaSo)-agar plates. Using a spiral plater, the inactivating mixture was directly plated out onto CaSo-agar. The samples were incubated for 24 to 72 hours at 37° C. and macroscopically evaluated for growth. The destruction time or the residual germ count was determined in this way. The germ count of an unchallenged water control is related to the germ count of the inactivated test solution taking the dilution into account. The higher the value, the better the microbicidal effect. The symbol < means that the logarithmic reductuon factor is below the indicated value or, in the case of the symbol >, above the indicated value. The abbreviation CU stands for “concentration used”.

| SMILES | logarithmic reduction factor |
| --- | --- |
| CCCCCCCC(=O)OCC[N+](C)(CCOC(=O)CCCCCCC)CCOC(=O)CCCCCCC.COS(=O)(=O)[O-] [Example 2, methyl triethanolammonium tricaprylic acid ester methosulfate] | 4.40 |

Same assay, conditions: CU 200 mg/l; contact time 60 mins.

| SMILES | logarithmic reduction factor |
| --- | --- |
| CCCCCCCC(=O)OCC[N+](C)(CCOC(=O)CCCCCCC)CCOC(=O)CCCCCCC.COS(=O)(=O)[O-] [Example 2, methyl triethanolammonium tricaprylic acid ester methosulfate] | >5.59 |

Same assay, conditions: CU 400 mg/l; contact time 5 mins.

| SMILES | logarithmic reduction factor |
| --- | --- |
| CCCCCCCC(=O)OCC[N+](C)(CCOC(=O)CCCCCCC)CCOC(=O)CCCCCCC.COS(=O)(=O)[O-] [Example 2, methyl triethanolammonium tricaprylic acid ester methosulfate] | 4.08 |

Same assay, conditions: CU 400 mg/l; contact time 15 mins.

| SMILES | logarithmic reduction factor |
| --- | --- |
| CCCCCCCC(=O)OCC[N+](C)(CCOC(=O)CCCCCCC)CCOC(=O)CCCCCCC.COS(=O)(=O)[O-] [Example 2, methyl triethanolammonium tricaprylic acid ester methosulfate] | >5.70 |

Same assay, conditions: CU 400 mg/l; contact time 30 mins.

| SMILES | logarithmic reduction factor |
| --- | --- |
| CCCCCCCC(=O)OCC[N+](C)(CCOC(=O)CCCCCCC)CCOC(=O)CCCCCCC.COS(=O)(=O)[O-] [Example 2, methyl triethanolammonium tricaprylic acid ester methosulfate] | >5.68 |

Same assay, conditions: CU 400 mg/l; contact time 60 mins.

| SMILES | logarithmic reduction factor |
| --- | --- |
| CCCCCCCC(=O)OCC[N+](C)(CCOC(=O)CCCCCCC)CCOC(=O)CCCCCCC.COS(=O)(=O)[O-] [Example 2, methyl triethanolammonium tricaprylic acid ester methosulfate] | >5.59 |

Same assay, conditions: CU 800 mg/l; contact time 5 mins.

| SMILES | logarithmic reduction factor |
| --- | --- |
| CCCCCCCC(=O)OCC[N+](C)(CCOC(=O)CCCCCCC)CCOC(=O)CCCCCCC.COS(=O)(=O)[O-] [Example 2, methyl triethanolammonium tricaprylic acid ester methosulfate] | 4.42 |

Same assay, conditions: CU 800 mg/l; contact time 15 mins.

| SMILES | logarithmic reduction factor |
| --- | --- |
| CCCCCCCC(=O)OCC[N+](C)(CCOC(=O)CCCCCCC)CCOC(=O)CCCCCCC.COS(=O)(=O)[O-] [Example 2, methyl triethanolammonium tricaprylic acid ester methosulfate] | >5.70 |

Same assay, conditions: CU 800 mg/l; contact time 30 mins.

| SMILES | logarithmic reduction factor |
| --- | --- |
| CCCCCCCC(=O)OCC[N+](C)(CCOC(=O)CCCCCCC)CCOC(=O)CCCCCCC.COS(=O)(=O)[O-] [Example 2, methyl triethanolammonium tricaprylic acid ester methosulfate] | >5.68 |

Same assay, conditions: CU 800 mg/l; contact time 60 mins.

| SMILES | logarithmic reduction factor |
| --- | --- |
| CCCCCCCC(=O)OCC[N+](C)(CCOC(=O)CCCCCCC)CCOC(=O)CCCCCCC.COS(=O)(=O)[O-] [Example 2, methyl triethanolammonium tricaprylic acid ester methosulfate] | >5.59 |

These molecules were tested on Staphylococcus aureus ATCC 6538 (assay: DGHM suspension test, microbicidal activity). Conditions: CU 50 mg/l; contact time 5 mins.
Format: cell-based
Experimental: as §1, §2, §3

| SMILES | logarithmic reduction factor |
| --- | --- |
| CCCCCCCC(=O)OCC[N+](C)(CCOC(=O)CCCCCCC)CCOC(=O)CCCCCCC.COS(=O)(=O)[O-] [Example 2, methyl triethanolammonium tricaprylic acid ester methosulfate] | 3.21 |

Same assay, conditions: CU 50 mg/l; contact time 15 mins.

| SMILES | logarithmic reduction factor |
| --- | --- |
| CCCCCCCC(=O)OCC[N+](C)(CCOC(=O)CCCCCCC)CCOC(=O)CCCCCCC.COS(=O)(=O)[O-] [Example 2, methyl triethanolammonium tricaprylic acid ester methosulfate] | >5.38 |

Same assay, conditions: CU 50 mg/l; contact time 30 mins.

| SMILES | logarithmic reduction factor |
| --- | --- |
| CCCCCCCC(=O)OCC[N+](C)(CCOC(=O)CCCCCCC)CCOC(=O)CCCCCCC.COS(=O)(=O)[O-] [Example 2, methyl triethanolammonium tricaprylic acid ester methosulfate] | >5.50 |

Same assay, conditions: CU 50 mg/l; contact time 60 mins.

| SMILES | logarithmic reduction factor |
| --- | --- |
| CCCCCCCC(=O)OCC[N+](C)(CCOC(=O)CCCCCCC)CCOC(=O)CCCCCCC.COS(=O)(=O)[O-] [Example 2, methyl triethanolammonium tricaprylic acid ester methosulfate] | >5.41 |

Same assay, conditions: CU 100 mg/l; contact time 5 mins.

| SMILES | logarithmic reduction factor |
| --- | --- |
| CCCCCCCC(=O)OCC[N+](C)(CCOC(=O)CCCCCCC)CCOC(=O)CCCCCCC.COS(=O)(=O)[O-] [Example 2, methyl triethanolammonium tricaprylic acid ester methosulfate] | 3.54 |

Same assay, conditions: CU 100 mg/l; contact time 15 mins.

| SMILES | logarithmic reduction factor |
| --- | --- |
| CCCCCCCC(=O)OCC[N+](C)(CCOC(=O)CCCCCCC)CCOC(=O)CCCCCCC.COS(=O)(=O)[O-] [Example 2, methyl triethanolammonium tricaprylic acid ester methosulfate] | >5.38 |

Same assay, conditions: CU 100 mg/l; contact time 30 mins.

| SMILES | logarithmic reduction factor |
| --- | --- |
| CCCCCCCC(=O)OCC[N+](C)(CCOC(=O)CCCCCCC)CCOC(=O)CCCCCCC.COS(=O)(=O)[O-] [Example 2, methyl triethanolammonium tricaprylic acid ester methosulfate] | >5.50 |

Same assay, conditions: CU 100 mg/l; contact time 60 mins.

| SMILES | logarithmic reduction factor |
| --- | --- |
| CCCCCCCC(=O)OCC[N+](C)(CCOC(=O)CCCCCCC)CCOC(=O)CCCCCCC.COS(=O)(=O)[O-] [Example 2, methyl triethanolammonium tricaprylic acid ester methosulfate] | >5.41 |

Same assay, conditions: CU 200 mg/l; contact time 5 mins.

| SMILES | logarithmic reduction factor |
| --- | --- |
| CCCCCCCC(=O)OCC[N+](C)(CCOC(=O)CCCCCCC)CCOC(=O)CCCCCCC.COS(=O)(=O)[O-] [Example 2, methyl triethanolammonium tricaprylic acid ester methosulfate] | 4.32 |

Same assay, conditions: CU 200 mg/l; contact time 15 mins.

| SMILES | logarithmic reduction factor |
| --- | --- |
| CCCCCCCC(=O)OCC[N+](C)(CCOC(=O)CCCCCCC)CCOC(=O)CCCCCCC.COS(=O)(=O)[O-] [Example 2, methyl triethanolammonium tricaprylic acid ester methosulfate] | >5.38 |

Same assay, conditions: CU 200 mg/l; contact time 30 mins.

| SMILES | logarithmic reduction factor |
| --- | --- |
| CCCCCCCC(=O)OCC[N+](C)(CCOC(=O)CCCCCCC)CCOC(=O)CCCCCCC.COS(=O)(=O)[O-] [Example 2, methyl triethanolammonium tricaprylic acid ester methosulfate] | >5.50 |

Same assay, conditions: CU 200 mg/l; contact time 60 mins.

| SMILES | logarithmic reduction factor |
| --- | --- |
| CCCCCCCC(=O)OCC[N+](C)(CCOC(=O)CCCCCCC)CCOC(=O)CCCCCCC.COS(=O)(=O)[O-] [Example 2, methyl triethanolammonium tricaprylic acid ester methosulfate] | >5.41 |

Same assay, conditions: CU 400 mg/l; contact time 5 mins.

| SMILES | logarithmic reduction factor |
| --- | --- |
| CCCCCCCC(=O)OCC[N+](C)(CCOC(=O)CCCCCCC)CCOC(=O)CCCCCCC.COS(=O)(=O)[O-] [Example 2, methyl triethanolammonium tricaprylic acid ester methosulfate] | >5.56 |

Same assay, conditions: CU 400 mg/l; contact time 15 mins.

| SMILES | logarithmic reduction factor |
| --- | --- |
| CCCCCCCC(=O)OCC[N+](C)(CCOC(=O)CCCCCCC)CCOC(=O)CCCCCCC.COS(=O)(=O)[O-] [Example 2, methyl triethanolammonium tricaprylic acid ester methosulfate] | >5.38 |

Same assay, conditions: CU 400 mg/l; contact time 30 mins.

| SMILES | logarithmic reduction factor |
| --- | --- |
| CCCCCCCC(=O)OCC[N+](C)(CCOC(=O)CCCCCCC)CCOC(=O)CCCCCCC.COS(=O)(=O)[O-] [Example 2, methyl triethanolammonium tricaprylic acid ester methosulfate] | >5.50 |

Same assay, conditions: CU 400 mg/l; contact time 60 mins.

| SMILES | logarithmic reduction factor |
| --- | --- |
| CCCCCCCC(=O)OCC[N+](C)(CCOC(=O)CCCCCCC)CCOC(=O)CCCCCCC.COS(=O)(=O)[O-] [Example 2, methyl triethanolammonium tricaprylic acid ester methosulfate] | >5.41 |

Same assay, conditions: CU 800 mg/l; contact time 5 mins.

| SMILES | logarithmic reduction factor |
| --- | --- |
| CCCCCCCC(=O)OCC[N+](C)(CCOC(=O)CCCCCCC)CCOC(=O)CCCCCCC.COS(=O)(=O)[O-] [Example 2, methyl triethanolammonium tricaprylic acid ester methosulfate] | >5.56 |

Same assay, conditions: CU 800 mg/l; contact time 15 mins.

| SMILES | logarithmic reduction factor |
| --- | --- |
| CCCCCCCC(=O)OCC[N+](C)(CCOC(=O)CCCCCCC)CCOC(=O)CCCCCCC.COS(=O)(=O)[O-] [Example 2, methyl triethanolammonium tricaprylic acid ester methosulfate] | >5.38 |

Same assay, conditions: CU 800 mg/l; contact time 30 mins.

| SMILES | logarithmic reduction factor |
| --- | --- |
| CCCCCCCC(=O)OCC[N+](C)(CCOC(=O)CCCCCCC)CCOC(=O)CCCCCCC.COS(=O)(=O)[O-] [Example 2, methyl triethanolammonium tricaprylic acid ester methosulfate] | >5.50 |

Same assay, conditions: CU 800 mg/l; contact time 60 mins.

| SMILES | logarithmic reduction factor |
| --- | --- |
| CCCCCCCC(=O)OCC[N+](C)(CCOC(=O)CCCCCCC)CCOC(=O)CCCCCCC.COS(=O)(=O)[O-] [Example 2, methyl triethanolammonium tricaprylic acid ester methosulfate] | >5.41 |
